# Test results taken from ChEMBL document CHEMBL3808348, “Rational Design, Synthesis, and Biological Evaluation of 7-Azaindole Derivatives as Potent Focused Multi-Targeted Kinase Inhibitors” (J Med Chem, 2016).
# Columns and labels:
# [1] = biological target: Epidermal growth factor receptor (Homo sapiens, UniProt P00533); assay: Inhibition of GST-tagged human recombinant EGFR (668 to1210 residues) expressed in baculovirus using Fluorescein-Poly GT as substrate at 100 nM
# [2] = biological target: Fibroblast growth factor receptor 2 (Homo sapiens) (UniProt P21802); assay: Inhibition of His-tagged human recombinant FGFR2 (403 to 822 residues) expressed in baculovirus using Fluorescein-Poly GT as substrate at 100 nM
# [3] = biological target: Serine/threonine-protein kinase B-raf (Homo sapiens) (UniProt P15056); assay: Inhibition of full length GST-tagged human recombinant BRAF expressed in baculovirus using Fluorescein-MAP2K1 as substrate at 100 nM
# Serine/threonine-protein kinase B-raf (Homo sapiens), sequence (P15056 whole entry): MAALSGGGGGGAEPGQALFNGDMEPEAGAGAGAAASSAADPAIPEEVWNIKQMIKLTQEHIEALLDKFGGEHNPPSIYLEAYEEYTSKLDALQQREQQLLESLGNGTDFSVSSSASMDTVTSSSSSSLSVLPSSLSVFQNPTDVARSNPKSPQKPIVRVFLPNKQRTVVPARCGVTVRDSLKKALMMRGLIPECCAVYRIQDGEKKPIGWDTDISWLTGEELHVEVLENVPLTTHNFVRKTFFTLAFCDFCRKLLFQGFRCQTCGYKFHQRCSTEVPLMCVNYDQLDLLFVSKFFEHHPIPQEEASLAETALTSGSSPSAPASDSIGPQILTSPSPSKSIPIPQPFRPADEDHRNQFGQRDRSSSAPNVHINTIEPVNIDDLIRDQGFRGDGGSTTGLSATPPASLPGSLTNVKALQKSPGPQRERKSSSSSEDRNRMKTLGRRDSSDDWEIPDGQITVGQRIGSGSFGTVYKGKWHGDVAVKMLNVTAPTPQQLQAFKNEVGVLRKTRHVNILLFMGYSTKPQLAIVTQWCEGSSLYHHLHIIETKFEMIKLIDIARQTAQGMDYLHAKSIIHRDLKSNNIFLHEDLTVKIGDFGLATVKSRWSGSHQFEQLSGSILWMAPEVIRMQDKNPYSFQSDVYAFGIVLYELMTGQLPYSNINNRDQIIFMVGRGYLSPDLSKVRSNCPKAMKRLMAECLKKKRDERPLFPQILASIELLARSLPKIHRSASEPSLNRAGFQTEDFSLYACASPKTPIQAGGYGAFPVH
# [4] = biological target: Proto-oncogene tyrosine-protein kinase Src (Homo sapiens, UniProt P12931); assay: Inhibition of full length His-tagged human recombinant cSRC expressed in baculovirus using Fluorescein-Poly GT as substrate at 100 nM
# Proto-oncogene tyrosine-protein kinase Src, sequence (P12931 2-536 limits assumed): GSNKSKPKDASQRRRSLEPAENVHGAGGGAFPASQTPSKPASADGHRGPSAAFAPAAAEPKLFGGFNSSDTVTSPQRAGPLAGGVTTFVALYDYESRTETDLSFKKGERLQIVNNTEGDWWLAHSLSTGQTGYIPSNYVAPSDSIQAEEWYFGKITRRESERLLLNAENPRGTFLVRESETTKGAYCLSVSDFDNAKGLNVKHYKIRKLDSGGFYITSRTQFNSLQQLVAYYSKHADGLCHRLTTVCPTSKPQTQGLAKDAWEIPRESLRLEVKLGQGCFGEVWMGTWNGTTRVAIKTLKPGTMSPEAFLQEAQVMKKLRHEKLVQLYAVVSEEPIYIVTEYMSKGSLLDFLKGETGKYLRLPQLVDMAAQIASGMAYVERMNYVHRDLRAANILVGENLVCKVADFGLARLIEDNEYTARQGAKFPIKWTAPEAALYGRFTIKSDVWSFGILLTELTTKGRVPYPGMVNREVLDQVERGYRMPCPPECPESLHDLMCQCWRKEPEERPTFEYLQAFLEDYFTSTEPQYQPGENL
# [5] = biological target: Platelet-derived growth factor receptor alpha (Homo sapiens, UniProt P16234); assay: Inhibition of full length GST-tagged human recombinant PDGFRalpha expressed in baculovirus using Fluorescein-Poly GT as substrate at 100 nM
# Platelet-derived growth factor receptor alpha, sequence (P16234 whole entry): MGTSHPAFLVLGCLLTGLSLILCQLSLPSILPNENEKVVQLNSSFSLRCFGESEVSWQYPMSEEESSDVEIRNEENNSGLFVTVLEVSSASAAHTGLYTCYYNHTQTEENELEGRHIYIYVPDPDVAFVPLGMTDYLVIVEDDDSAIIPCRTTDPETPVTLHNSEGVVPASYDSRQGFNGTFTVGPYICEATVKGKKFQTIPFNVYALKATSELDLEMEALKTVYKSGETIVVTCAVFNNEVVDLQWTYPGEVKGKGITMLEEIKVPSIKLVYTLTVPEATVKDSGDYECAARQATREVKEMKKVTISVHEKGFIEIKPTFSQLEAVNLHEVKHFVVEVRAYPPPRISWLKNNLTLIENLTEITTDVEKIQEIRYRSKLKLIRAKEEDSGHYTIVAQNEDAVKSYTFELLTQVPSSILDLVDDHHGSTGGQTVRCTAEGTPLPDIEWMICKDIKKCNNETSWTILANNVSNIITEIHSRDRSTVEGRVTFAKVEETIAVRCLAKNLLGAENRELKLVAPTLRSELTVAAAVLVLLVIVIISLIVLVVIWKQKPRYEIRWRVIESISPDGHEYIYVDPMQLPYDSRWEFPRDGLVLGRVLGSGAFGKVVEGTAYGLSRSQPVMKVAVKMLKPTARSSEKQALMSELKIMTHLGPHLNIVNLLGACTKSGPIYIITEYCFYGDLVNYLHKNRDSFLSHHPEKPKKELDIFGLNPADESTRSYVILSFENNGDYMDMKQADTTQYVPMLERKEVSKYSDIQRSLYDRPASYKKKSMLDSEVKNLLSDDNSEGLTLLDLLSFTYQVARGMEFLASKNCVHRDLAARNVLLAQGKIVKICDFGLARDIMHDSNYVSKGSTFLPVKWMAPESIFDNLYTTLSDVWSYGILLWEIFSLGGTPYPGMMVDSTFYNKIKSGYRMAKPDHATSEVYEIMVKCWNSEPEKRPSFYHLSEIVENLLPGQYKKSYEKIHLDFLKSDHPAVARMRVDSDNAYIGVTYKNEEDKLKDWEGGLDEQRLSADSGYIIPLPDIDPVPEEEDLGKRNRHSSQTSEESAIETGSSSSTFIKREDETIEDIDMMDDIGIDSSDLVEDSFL
# [6] = biological target: Vascular endothelial growth factor receptor 2 (Homo sapiens) (UniProt P35968); assay: Inhibition of full length His-tagged human recombinant VEGFR2 expressed in baculovirus using Fluorescein-Poly GT as substrate at 100 nM
# Vascular endothelial growth factor receptor 2 (Homo sapiens), sequence (P35968 whole entry): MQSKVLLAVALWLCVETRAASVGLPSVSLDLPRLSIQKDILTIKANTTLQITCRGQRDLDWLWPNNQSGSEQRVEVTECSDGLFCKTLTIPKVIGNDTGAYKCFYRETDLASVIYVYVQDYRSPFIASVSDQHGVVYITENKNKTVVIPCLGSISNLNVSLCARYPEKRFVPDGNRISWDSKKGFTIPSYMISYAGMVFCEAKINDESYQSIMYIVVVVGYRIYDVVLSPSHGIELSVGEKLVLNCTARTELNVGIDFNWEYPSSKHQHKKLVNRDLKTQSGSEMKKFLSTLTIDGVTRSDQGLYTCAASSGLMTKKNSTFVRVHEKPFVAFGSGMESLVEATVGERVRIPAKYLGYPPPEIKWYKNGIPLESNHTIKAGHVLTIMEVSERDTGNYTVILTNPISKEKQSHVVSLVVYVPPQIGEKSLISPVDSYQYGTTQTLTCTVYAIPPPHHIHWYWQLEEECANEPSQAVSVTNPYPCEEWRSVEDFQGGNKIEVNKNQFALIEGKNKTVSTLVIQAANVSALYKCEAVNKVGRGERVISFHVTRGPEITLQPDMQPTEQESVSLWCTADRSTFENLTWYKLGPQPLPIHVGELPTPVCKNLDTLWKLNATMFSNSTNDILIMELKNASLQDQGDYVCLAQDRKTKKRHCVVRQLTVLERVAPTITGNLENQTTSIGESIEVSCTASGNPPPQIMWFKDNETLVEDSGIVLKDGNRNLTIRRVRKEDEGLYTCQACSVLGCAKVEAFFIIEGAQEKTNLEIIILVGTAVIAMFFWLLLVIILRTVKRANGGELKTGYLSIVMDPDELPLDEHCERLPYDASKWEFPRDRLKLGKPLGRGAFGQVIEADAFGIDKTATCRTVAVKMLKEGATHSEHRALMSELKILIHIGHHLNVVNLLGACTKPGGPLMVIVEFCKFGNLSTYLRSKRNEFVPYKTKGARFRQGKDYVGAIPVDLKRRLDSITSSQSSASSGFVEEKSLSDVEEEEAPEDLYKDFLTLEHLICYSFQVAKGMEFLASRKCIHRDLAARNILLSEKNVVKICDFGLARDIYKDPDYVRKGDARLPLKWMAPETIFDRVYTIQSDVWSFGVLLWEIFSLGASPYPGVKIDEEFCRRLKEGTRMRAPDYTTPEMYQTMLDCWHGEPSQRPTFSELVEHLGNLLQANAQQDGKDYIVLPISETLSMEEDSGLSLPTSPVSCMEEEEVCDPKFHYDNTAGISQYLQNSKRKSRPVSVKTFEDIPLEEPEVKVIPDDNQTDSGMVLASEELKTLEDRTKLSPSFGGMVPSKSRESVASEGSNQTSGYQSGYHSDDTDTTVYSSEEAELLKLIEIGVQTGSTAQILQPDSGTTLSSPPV
# HUVEC = assay: Antiangiogenic activity in HUVEC after 72 hrs by MTT assay; format: functional, cell-based; conditions: Homo sapiens
# HepG2 = assay: Antiproliferative activity against human HepG2 cells after 72 hrs by MTT assay; format: functional, cell-based; conditions: HepG2, 72 h
# Epidermal growth factor receptor, sequence (P00533 whole entry, the tested form may be a part): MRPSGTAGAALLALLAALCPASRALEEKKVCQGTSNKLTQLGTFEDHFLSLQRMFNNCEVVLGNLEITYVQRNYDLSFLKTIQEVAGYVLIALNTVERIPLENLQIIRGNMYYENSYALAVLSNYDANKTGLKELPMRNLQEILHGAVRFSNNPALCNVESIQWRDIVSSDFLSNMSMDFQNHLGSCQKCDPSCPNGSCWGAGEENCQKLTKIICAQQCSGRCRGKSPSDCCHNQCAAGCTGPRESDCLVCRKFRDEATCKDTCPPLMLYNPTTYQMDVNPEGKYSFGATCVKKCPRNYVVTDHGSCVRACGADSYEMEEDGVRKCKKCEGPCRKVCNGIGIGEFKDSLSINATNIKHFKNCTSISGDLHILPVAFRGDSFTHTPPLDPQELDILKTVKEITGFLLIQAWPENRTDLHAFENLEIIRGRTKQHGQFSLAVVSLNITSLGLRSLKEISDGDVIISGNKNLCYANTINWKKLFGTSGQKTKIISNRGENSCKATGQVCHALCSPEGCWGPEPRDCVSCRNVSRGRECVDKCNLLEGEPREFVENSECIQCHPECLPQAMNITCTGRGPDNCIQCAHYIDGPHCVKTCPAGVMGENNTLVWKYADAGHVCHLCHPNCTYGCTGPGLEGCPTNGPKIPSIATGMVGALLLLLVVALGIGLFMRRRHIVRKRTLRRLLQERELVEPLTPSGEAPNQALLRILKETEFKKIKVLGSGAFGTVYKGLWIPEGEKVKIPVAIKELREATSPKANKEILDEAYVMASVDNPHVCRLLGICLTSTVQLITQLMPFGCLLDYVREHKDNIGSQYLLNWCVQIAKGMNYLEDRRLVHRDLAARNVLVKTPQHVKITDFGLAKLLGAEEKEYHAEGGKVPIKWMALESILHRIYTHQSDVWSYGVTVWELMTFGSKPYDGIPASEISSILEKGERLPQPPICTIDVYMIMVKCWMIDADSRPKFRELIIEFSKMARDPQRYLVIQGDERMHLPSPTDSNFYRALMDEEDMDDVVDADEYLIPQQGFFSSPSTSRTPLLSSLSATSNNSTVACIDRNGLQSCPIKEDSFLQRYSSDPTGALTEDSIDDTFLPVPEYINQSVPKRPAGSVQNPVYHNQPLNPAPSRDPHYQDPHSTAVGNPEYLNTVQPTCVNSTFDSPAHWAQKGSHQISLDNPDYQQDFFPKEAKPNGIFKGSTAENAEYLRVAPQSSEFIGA
Compound,inhibition [1] [%],inhibition [2] [%],inhibition [3] [%],inhibition [4] [%],inhibition [5] [%],inhibition [6] [%],EC50 (HUVEC) [nM],EC50 (HepG2) [nM]
COC(=O)c1cc2cc(NCc3cc(NC(=O)c4ccc5nn[nH]c5c4)ccc3C)cnc2[nH]1,20,4,69,34,77,18,,
COC(=O)c1cc2cc(NCc3cc(NC(=O)c4cccc(C)c4)ccc3C)cnc2[nH]1,32,6,74,84,87,72,,
COC(=O)c1cc2cc(NCc3cc(NC(=O)c4cccc(C(C)C)c4)ccc3C)cnc2[nH]1,52,15,24,99,61,32,,
COC(=O)c1cc2cc(NCc3cc(NC(=O)c4cccc(Br)c4)ccc3C)cnc2[nH]1,35,1,63,85,87,59,,
Cc1ccc(NC(=O)c2ccc(CN3CCC(N(C)C)C3)c(C(F)(F)F)c2)cc1CNc1cnc2[nH]c(C(=O)O)cc2c1 (stereo not drawn),98,71,33,86,66,80,,
COC(=O)c1cc2cc(COc3cc(NC(=O)c4ccc(CN5CCC(N(C)C)C5)c(C(F)(F)F)c4)ccc3C)cnc2[nH]1 (stereo not drawn),93,69,15,87,96,86,426,> 1000
COC(=O)c1cc2cc(CCc3cc(NC(=O)c4ccc(CN5CCN(C)CC5)cc4)ccc3C)cnc2[nH]1,98,35,,91,99,98,,
COC(=O)c1cc2cc(NCc3cc(NC(=O)c4ccc(CN5CCN(C)CC5)cc4)ccc3C)cnc2[nH]1,81,21,60,93,85,73,> 1000,> 1000
COC(=O)c1cc2cc(NCc3cc(NC(=O)c4ccnc(C)c4)ccc3C)cnc2[nH]1,49,-6,85,51,82,46,986,> 1000
Cc1ccc(NC(=O)c2ccc(CN3CCN(C)CC3)cc2)cc1CNc1cnc2[nH]c(C(=O)O)cc2c1,96,14,12,75,79,72,,
COC(=O)c1cc2cc(CCc3cc(NC(=O)c4ccc(CN5CCC(N(C)C)C5)c(C(F)(F)F)c4)ccc3C)cnc2[nH]1 (stereo not drawn),97,101,64,101,105,102,171,> 1000
COC(=O)c1cc2cc(NCc3cc(NC(=O)c4cc[nH]c4)ccc3C)cnc2[nH]1,15,4,51,11,71,37,,
COC(=O)c1cc2cc(NCc3cc(NC(=O)c4ccccc4OC)ccc3C)cnc2[nH]1,16,12,62,78,93,42,,
COC(=O)c1cc2cc(NCc3cc(NC(=O)c4ccc(O)c(C(F)(F)F)c4)ccc3C)cnc2[nH]1,53,3,37,66,74,36,,
COC(=O)c1cc2cc(NCc3cc(NC(=O)c4cc(N(C)C)cc(C(F)(F)F)c4)ccc3C)cnc2[nH]1,42,5,14,108,42,22,,
COC(=O)c1cc2cc(NCc3cc(NC(=O)c4ccc5c(c4)OCO5)ccc3C)cnc2[nH]1,40,3,77,68,91,58,298,> 1000
CC(=O)c1cc2cc(CCc3cc(NC(=O)c4ccc(CN5CCN(C)CC5)cc4)ccc3C)cnc2[nH]1,86,18,67,77,86,92,118,> 1000
